Values quoted from earlier work in CN101647784A, “卡马西平缓释片及其制备方法” (Beijing Kexin Bicheng Medicine Technology Development Co Ltd, priority 2008, dated 2010).

Conditions: early epilepsy and single seizures; 406 subjects, immediate versus deferred treatment

NC(=O)N1c2ccccc2C=Cc2ccccc21 [卡马西平]
显著影响: effect on time to 1-year remission | effect on time to 2-year remission | effect on time to first seizure
